Measured values from PMC6127322, “Novel Imidazole and Methoxybenzylamine Growth Inhibitors Affecting Salmonella Cell Envelope Integrity and its Persistence in Chickens” (Scientific Reports, 2018).
Converted amounts (≈) assume the structure as drawn.

Legend:
Salmonella Newport = test: Dose-response assay (MBC) on Salmonella serovars; assay type: cell-based; details: Salmonella enterica; serovar Newport, M9 broth
[1] = tested on: nine Salmonella serotypes; test: Activity spectrum and dose-response across Salmonella serotypes; assay type: cell-based, Salmonella enterica; details: for Effect against the nine Salmonella serotypes: 200 µM, M9 broth; for MBC: Salmonella, read-out: MBCs among the nine serotypes
Method: The 128 SMs inhibiting S. Typhimurium growth (20% or higher) were tested for their antimicrobial effect on nine different Salmonella serovars frequently implicated in foodborne gastroenteritis outbreaks. […] Both screens were performed at 200 µM as described in the primary screening. Growth conditions for each strain are described in Supplementary Table S2.
S. Typhimurium was challenged with a determined concentration of SM as described in the primary screen.

[2] = tested on: Campylobacter jejuni 81–176; test: Activity spectrum on foodborne pathogens; assay type: cell-based; details: 200 µM
[3] = tested on: S. Typhimurium cell membrane; test: Confocal microscopy, FM4-64 and SYTO9 staining; assay type: cell-based, Salmonella enterica subsp. enterica serovar Typhimurium; details: 5X MBC for 3 hrs, compared to DMSO control
Method: An overnight suspension of S. […] The effect of the SMs on S. Typhimurium was assessed using confocal microscopy as previously described. Cells were stained for 45 min using FM4–64 (2 µg/ml; […] Invitrogen). Three microliters of stained bacteria were transferred onto agarose (1.2%) -coated glass slides. Microscopy was performed using a Leica TCS SP6 confocal scanning microscope with FM4–64 (515 nm/640 nm) and SYTO-9 (485 nm/498 nm) filters.

[4] = tested on: S. Typhimurium cell surface; test: Scanning electron microscopy (SEM); assay type: cell-based, Salmonella enterica subsp. enterica serovar Typhimurium; details: 5X MBC for 3 hrs, compared to DMSO control
Method: Processing of the samples for SEM was performed with the same samples as above and as previously described. Briefly, one volume of bacterial suspension was mixed with one volume of fixative (3% glutaraldehyde, 1% paraformaldehyde in 0.1 M potassium phosphate buffer pH 7.2), and incubated for 2 hrs at 4 °C. Fixed cells were centrifuged for 5 min at 1,200 g, washed twice with 1X PBS, and resuspended into 1% osmium tetroxide for 1 hr at room temperature in the dark, followed by serial dehydration of the sample in ethanol and platinum splatter-coating. Visualization and imaging of the samples was performed using a Hitachi S-4700 scanning electron microscope.

[5] = tested on: S. Typhimurium cell content; test: Loss of 260 nm absorbing materials; assay type: cell-based, Salmonella enterica subsp. enterica serotype Typhimurium; details: 1 hr, lethal dose (5X MBC), compared to 1% DMSO control
Method: Figure S2. Estimation of the membrane permeability of Salmonella enterica subsp. enterica serotype Typhimurium strain JSG626 after small molecule (SM) treatment. (A) Crystal […]
Treatments were normalized based on 10 μg/ml of crystal violet solution (no uptake […]
different than the 1% DMSO control (P<0.01); n= 9. (B) Loss of 260 nm absorbing materials from S. Typhimurium cell content. 260 nm absorbing materials were measured […]
standard deviation; *: the amount of 260 nm absorbing material in supernatant was […]
Both experiments were performed as previously described (1).
(also on this page, place not known: updtae (%) (ng/µl) Crystal violet 260 nm absorbing material) […]

[6] = tested on: Galleria mellonella larvae; test: Toxicity on G. mellonella larvae; assay type: in vivo; details: uninfected larvae, single treatment with 12.5 µg of SM, 72 hrs
Method: Galleria mellonella larvae (fifth instar stage) were incubated for 12 hrs at 37 °C in the dark. After incubation, only larvae with a white creamy phenotype and a body weight ranging between 225 to 275 mg were selected for the study. […] Larval survival was monitored on 12 hrs intervals. Not treated larvae, larvae treated with the buffer mix, and larvae treated with 12.5 µg of chloramphenicol were used as controls.

[7] = tested on: Kan^R S. Typhimurium in layer chickens; assay type: in vivo, chicken; details: for Reduction of Salmonella in the ceca: compared to the DMSO group; for Ceca positive for S. Typhimurium after enrichment / Livers positive for S. Typhimurium after enrichment / Spleens positive for S. Typhimurium after enrichment: n = 10 chickens per group
chicken cecal microbiota = test: Cecal microbiota, 16S rRNA sequencing; assay type: in vivo; details: compared to the DMSO group, P < 0.01
Salmonella Albany = test: Dose-response assay (MBC) on Salmonella serovars; assay type: cell-based; details: Salmonella enterica; serovar Albany, M9 broth
Salmonella Anatum = test: Dose-response assay (MBC) on Salmonella serovars; assay type: cell-based; details: Salmonella enterica; serovar Anatum, M9 broth
Salmonella Braenderup = test: Dose-response assay (MBC) on Salmonella serovars; assay type: cell-based; details: Salmonella enterica; serovar Braenderup, M9 broth
[8] = tested on: avian Mycoplasma gallisepticum; test: Activity spectrum on avian pathogens; assay type: cell-based; details: 100 µM, unpublished data
[9] = tested on: S. Typhimurium in infected Caco-2, HD11, and THP-1 cell lines; test: S. Typhimurium survival in infected cell lines, summary over lines; assay type: cell-based, Salmonella enterica subsp. enterica serotype Typhimurium; details: over the three cell lines
Method: The ability of four SMs to clear S. Typhimurium was evaluated using three cell lines (Caco-2 cells, HD11, and THP-1 cells) as previously described. A multiplicity of infection (MOI) of 10 was used. Infected cells were treated with 1 µl of SMs (final concentration ranged between 100 µM and 6.25 µM) and incubated at 37 °C for 24 hrs in humidified, 5% CO2 incubator. Following incubation, cells were washed once with 1X PBS, lysed with 0.1% Triton-100X, serial ten-fold diluted in 1X PBS, and plated on agar plate. Plates were incubated at 37 °C for 24 hrs to determine the intracellular bacteria. Cells not infected and not treated, and cells infected and treated with 2% DMSO were used as controls.

Bifidobacterium longum = test: Growth of probiotic bacteria at 200 µM; assay type: cell-based; details: data not shown
Lactobacillus brevis = test: Growth of probiotic bacteria at 200 µM; assay type: cell-based; details: data not shown
[10] = tested on: Lactobacillus rhamnosus GG; test: Growth of probiotic bacteria at 200 µM; assay type: cell-based; details: data not shown
[11] = tested on: PhoP regulon in S. Typhimurium; set-up: method as in PubChem bioassay AID #1863, #1981, #2253, and #2401; details: ref PubChem bioassay AID #1863, #1981, #2253, and #2401; cited from earlier work
[12] = compared to the DMSO-treated group

Compound	MBC (Salmonella Newport) [µM]	Effect against the nine Salmonella serotypes [1]	MBC [1] [µM]	Membrane phenotype, FM4–64 staining [3]	Cell surface phenotype in SEM [4]	Increase in 260 nm-absorbing material [5] [fold]	Larva survival [6] [%]	Reduction of Salmonella in the ceca [7]	Ceca positive for S. Typhimurium after enrichment [7] [%]	Livers positive for S. Typhimurium after enrichment [7] [%]	Spleens positive for S. Typhimurium after enrichment [7] [%]	Salmonella OTUs in ceca (chicken cecal microbiota)	MBC (Salmonella Albany) [µM]	Effect on Mycoplasma gallisepticum [8]	also measured
CC1CCC(C(C)C)C(OC(=O)Cn2c[n+](CC(=O)OC3CC(C)CCC3C(C)C)c3ccccc32)C1 (centres unmarked) [SM1]	100	cidal	50 to 100	No signal was detected	distorted	2.18	66	did not show any reduction	90	40	50	reduction			Effect on Campylobacter jejuni 81–176 [2]: lethal
CCCCCCCCCCCCCCCC[n+]1ccn(CC#N)c1 [SM3]	50	cidal	25 to 50	No signal was detected		7.17	85	did not show any reduction	80	60	50		25	lethal	MBC (Salmonella Anatum): 25 µM; MBC (Salmonella Braenderup): 25 µM; Concentration clearing internalized Salmonella [9]: 50 µM
CCOc1cc(/C=N/N=C(N)N)ccc1OCc1ccc(Cl)cc1 [SM5]	50 (≈ 17.3 µg/mL)		25 to 100 (≈ 8.67 to 34.7 µg/mL)	a bright red spot was detected within every bacterium	outer membrane vesicles of approximately 100 to 300 nm diameter	5.25	92		70	40	30	reduction	100 (≈ 34.7 µg/mL)	lethal	Reduction in Salmonella population inside the ceca ([7]; 200 µg of SM per day, oral, five days): approximately 2.8 log; Reduction of cecal colonization by Salmonella [7, 12]: 30%; Reduction of spleen colonization by Salmonella [7, 12]: 25%; Effect on growth of Bifidobacterium longum (Bifidobacterium longum): did not affect the growth; Effect on growth of Lactobacillus brevis (Lactobacillus brevis): did not affect the growth; Effect on growth of Lactobacillus rhamnosus GG [10]: did not affect the growth; Activity on the PhoP regulon [11]: direct or indirect inhibitor
